From publication PMC10539439 (Pharmacological Reports, 2023)

Test: Blood pressure, 24-h telemetric method, normotensive rats
Type: in vivo, rat
Conditions: telemetry, 5 mg/kg b.w., first 15 or 15 and 30 min after 1st, 7th and 14th administration, vs control
Protocol: The blood pressure of rats treated with the tested compound was measured for a 24 h period after ip treatment (5 mg/kg b.w.) with a special telemetric system Stellar (TSE-Systems, Germany).
Surgery: The operation was carried out over 30 min under sterile conditions. Rats were anaesthetized with ketamine and xylasine (intramuscular injection: 100 mg/kg and 10 mg/kg). Before surgery and for 7 days after, the animals were also treated with cefuroxime (20 mg/kg/day) via intramuscular injection and ketoprofen (5 mg/kg/day) via ip injection. […] The transmitter was sutured to the peritoneal cavity.
The rats were individually caged for 2 weeks to heal after surgical cut. The animals were then placed in pairs in cages to reduce their isolation stress. Blood pressure was measured: before ip administration of the compounds – time 0 min and 24 h thereafter.

## Cl.N=C(N)NN=Cc1c(Cl)cc(O)cc1Cl [4-OH-Guanabenz, 2-[(2,6-Dichloro-4-hydroxyphenyl)methylene]hydrazinecarboximidamide Hydrochloride]
  effect on systolic and diastolic blood pressure (in words): significantly higher
